*1 amine or outer side, *2 acyl side, *3 side chain or, on linkers, in order; H or OH if unused. Where a SMILES comes first, the peptide text is derived from it. Bridges are numbered along the chain shown (N, C = ends). Side-chain parts run from the residue outwards. [ ]: non-standard residue; d: D form. The star is where a group is joined. γGlu = O=C(O)[C@H](CCC(=O)[*:2])N[*:1]; Palmitoyl = CCCCCCCCCCCCCCCC(=O)*; Nle = CCCC[C@H](N)C(=O)O; Aib = CC(C)(N)C(=O)O
Target: T1, human GCGR (Homo sapiens, UniProt P47871)
T1 construct: expressed in transfected cells
T1 sequence (P47871 26-477): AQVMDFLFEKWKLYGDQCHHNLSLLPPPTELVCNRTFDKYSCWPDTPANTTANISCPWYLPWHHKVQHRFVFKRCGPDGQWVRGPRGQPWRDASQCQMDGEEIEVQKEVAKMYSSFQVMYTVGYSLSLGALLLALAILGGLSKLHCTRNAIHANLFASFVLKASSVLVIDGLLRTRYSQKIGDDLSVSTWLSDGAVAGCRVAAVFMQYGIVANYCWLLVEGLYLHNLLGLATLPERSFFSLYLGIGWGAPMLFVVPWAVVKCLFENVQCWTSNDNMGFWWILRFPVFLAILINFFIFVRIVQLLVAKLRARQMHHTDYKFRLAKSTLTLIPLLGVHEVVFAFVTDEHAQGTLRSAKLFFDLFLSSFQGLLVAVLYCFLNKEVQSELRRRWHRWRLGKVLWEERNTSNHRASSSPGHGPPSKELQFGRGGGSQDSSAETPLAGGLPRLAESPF
Assay: cAMP activity assay, cells expressing human GCGR
Assay type: cell-based
Conditions: for hGCGR/hGLPIR (hTone): ratio of human GCGR EC50 to human GLP1R EC50
Experimental: Activity of the peptides at the Glucagon receptor (GCGR) and GLP-1 receptor (GLP1R) was measured in a cAMP activity assay. Peptides were dissolved in 100% DMSO and serially diluted to generate 10 point titrations. The peptide solutions were then transferred into 384-well assay plates (150 nL/well). Assay ready frozen cells expressing human GLP1R or human GCGR were suspended in growth media consisting of DMEM medium (GIBCO), 10% FBS (GIBCO), 1×NEAA(GIBCO), 1×P/S (GIBCO), 10 ug/ml Blasticidin (GIBCO) and 200 μg/mL Hygromycin (GIBCO). […] The cell suspensions (15 μL) were then added to the assay plates containing the peptide solutions (30,000 cells/well for human GCGR; 10,000 cells/well for human GLP1R). […] Production of cAMP was determined using […] kits (DiscoverX) following manufacturer protocol. The plates were incubated for overnight at room temperature in the dark. Luminescence was measured using an EnVision Multilabel plate reader (Perkin Elmer). Native GLP-1 and Glucagon (Bachem) are used as control peptides.

hGCGR/hGLPIR (hTone) | EC50 (cAMP production, cells expressing human GCGR, 1 hour, table does not say whether with or without 20% human serum) [nM] | Structure (SMILES)
1.41 | – | CCCCCCCCCCCCCCCC(=O)N[C@@H](CCC(=O)N[C@@H](CCC(=O)NCCCC[C@H](NC(=O)[C@H](CC(=O)O)NC(=O)[C@H](CO)NC(=O)[C@@H](NC(=O)[C@H](Cc1ccccc1)NC(=O)[C@@H](NC(=O)CNC(=O)[C@H](CCC(N)=O)NC(=O)C(C)(C)NC(=O)[C@@H](N)Cc1c[nH]cn1)[C@@H](C)O)[C@@H](C)O)C(=O)N[C@@H](CO)C(=O)N[C@@H](CCCCN)C(=O)N[C@@H](Cc1ccc(O)cc1)C(=O)N[C@@H](CC(C)C)C(=O)N[C@@H](CC(=O)O)C(=O)N[C@H]1CCCCNC(=O)CC[C@@H](C(=O)N[C@@H](CC(=O)O)C(=O)N[C@@H](Cc2ccccc2)C(=O)N[C@H](C(=O)N[C@@H](CCC(N)=O)C(=O)N[C@@H](Cc2c[nH]c3ccccc23)C(=O)N[C@@H](CC(C)C)C(=O)N[C@@H](CCCC)C(=O)N[C@@H](CC(=O)O)C(=O)N[C@H](C(N)=O)[C@@H](C)O)C(C)C)NC(=O)[C@H](C)NC(=O)[C@H](C)NC(=O)[C@H](CCCNC(=N)N)NC1=O)C(=O)O)C(=O)O [SEQ ID NO: 14] (H-H[Aib]QGTFTSDK([γGlu-γGlu-Palmitoyl])SKYLDKRAAEDFVQWL[Nle]DT-NH2; lactam 16-20; N-terminus assumed)
0.8 | 0.06 | CCCCCCCCCCCCCCCC(=O)N[C@@H](CCC(=O)N[C@@H](CCC(=O)NCCCC[C@H](NC(=O)[C@H](CC(=O)O)NC(=O)[C@H](CO)NC(=O)[C@@H](NC(=O)[C@H](Cc1ccccc1)NC(=O)[C@@H](NC(=O)CNC(=O)[C@H](CCC(N)=O)NC(=O)[C@@H](CO)NC(=O)[C@@H](N)Cc1c[nH]cn1)[C@@H](C)O)[C@@H](C)O)C(=O)N[C@@H](CO)C(=O)N[C@@H](CCCCN)C(=O)N[C@@H](Cc1ccc(O)cc1)C(=O)N[C@@H](CC(C)C)C(=O)N[C@@H](CC(=O)O)C(=O)N[C@@H](C)C(=O)N[C@H]1CCCCNC(=O)CC[C@@H](C(=O)N[C@@H](Cc2ccccc2)C(=O)N[C@H](C(=O)N[C@@H](CCC(N)=O)C(=O)N[C@@H](Cc2c[nH]c3ccccc23)C(=O)N[C@@H](CC(C)C)C(=O)N[C@@H](CC(C)C)C(=O)N[C@@H](CC(=O)O)C(=O)N[C@H](C(N)=O)[C@@H](C)O)C(C)C)NC(=O)[C@H](CCC(N)=O)NC(=O)[C@H](C)NC(=O)[C@H](C)NC1=O)C(=O)O)C(=O)O [SEQ ID NO: 12]
1.05 | – | CCCCCCCCCCCCCCCC(=O)N[C@@H](CCC(=O)N[C@@H](CCC(=O)NCCCC[C@H](NC(=O)[C@H](CC(=O)O)NC(=O)[C@H](CO)NC(=O)[C@@H](NC(=O)[C@H](Cc1ccccc1)NC(=O)[C@@H](NC(=O)CNC(=O)[C@H](CCC(N)=O)NC(=O)C(C)(C)NC(=O)[C@@H](N)Cc1c[nH]cn1)[C@@H](C)O)[C@@H](C)O)C(=O)N[C@@H](CO)C(=O)N[C@@H](CCCCN)C(=O)N[C@@H](Cc1ccc(O)cc1)C(=O)N[C@@H](CC(C)C)C(=O)N[C@@H](CC(=O)O)C(=O)NC(C)(C)C(=O)N[C@@H](CCCNC(=N)N)C(=O)N[C@@H](C)C(=O)N[C@@H](C)C(=O)N[C@@H](CCC(N)=O)C(=O)N[C@@H](CC(=O)O)C(=O)N[C@@H](Cc1ccccc1)C(=O)N[C@H](C(=O)N[C@H]1CCCCNC(=O)CC[C@@H](C(=O)N[C@H](C(N)=O)[C@@H](C)O)NC(=O)[C@H](CCCC)NC(=O)[C@H](CC(C)C)NC(=O)[C@H](Cc2c[nH]c3ccccc23)NC1=O)C(C)C)C(=O)O)C(=O)O [SEQ ID NO: 17] (H-H[Aib]QGTFTSDK([γGlu-γGlu-Palmitoyl])SKYLD[Aib]RAAQDFVKWL[Nle]ET-NH2; lactam 24-28; N-terminus assumed)
